# According to patent US20230104823A1, “PROCESS FOR THE PREPARATION OF PURINE DERIVATIVES EXHIBITING CDK INHIBITORY ACTIVITY” (CYCLACEL LIMITED, priority 2020, published 2023):
# How the values were obtained:
# [1] = solubility measurement during crystallisation of crude compound [1]; type: physicochemical; settings: for T=0 solubility measurement: 5 volumes
# Protocol: The hot mixture was clarified through a heated large nylon syringe filter (0.44 μm) into a Mya4 100 ml process vessel with overhead U-shape agitation at 200 RPM pre-heated to 95° C. (target internal temperature=80-85° C.). The dark brown solution was cooled to 74.5° C. over 15 minutes and seeded with crystals of compound [1] (Form A) (ca. 6 mg 0.1% wt). […] Noticeable amounts of off-white precipitate were observed ca. 61-62° C. Following cooling, the mixture was held at 0° C. for ca. 3 hours. The solids were isolated via filtration, with no evidence of fouling of the vessel or agitator. The vessel and filter cake were washed with the isolated filtrates and air dried for 15 minutes before collection of the off-white solids and dark brown liquors. The solids were collected and dried in vacuo at 45° C. for ca. 4 hours to yield the title compound. 4.88 g of crystalline Compound [1] was successfully isolated in 80.1% yield. The maximum theoretical recovery based upon measured solubility pre-isolation at 0° C. was 94.2%.
# Crude Compound [1] (6.00 g) was suspended ethyl acetate (30 ml, 5 volumes) in a suitable glass vessel under N2 fitted with reflux condenser and stirrer bead agitation at 420 RPM. The beige suspension was heated to 75° C. (target 70-75° C.) upon which full dissolution to a dark brown solution was achieved during heating at ca. 68° C. The hot mixture was clarified through a heated large nylon syringe filter (0.44 μm) into a Mya4 100 ml process vessel with overhead U-shape agitation at 200 RPM pre-heated to 85° C. (target internal temperature=70-75° C.). The dark brown solution was cooled to 65.2° C. over 15 minutes (target 62.5-67.5° C.) and seeded with crystals of compound [1] (Form A) (ca. 6 mg 0.1% wt). Cooling was continued to 59.8° C. […] The solids were isolated via filtration. The vessel and filter cake were washed with the isolated filtrates and air dried for 12 minutes before collection of the off-white solids and dark brown liquors. The solids were collected and dried in vacuo at 45° C. for ca. 4 hours to yield the title compound. 4.59 g of crystalline Compound [1] was successfully isolated in 76.4% yield. The maximum theoretical recovery based upon measured solubility pre-isolation at 0° C. was 90.6%.
# Crude Compound [1] (5.96 g) was suspended n-Butyl acetate (30 ml, 5 volumes) in a suitable glass vessel under N2 fitted with reflux condenser and stirrer bead agitation at 420 RPM. The beige suspension was heated to 85° C. (target 80-85° C.) upon which full dissolution to a dark brown solution was achieved during heating at ca. 82° C. The hot mixture was clarified through a heated large nylon syringe filter (0.44 μm) into a Mya4 100 ml process vessel with overhead U-shape agitation at 200 RPM pre-heated to 95° C. (target internal temperature=80-85° C.). The dark brown solution was cooled to 74.6° C. over 15 minutes (target 72.5-77.5° C.) and seeded with crystals of compound [1] (Form A) (ca. 6 mg 0.1% wt). Cooling was continued to 69.5° C. […] The solids were isolated via filtration. The vessel and filter cake were washed with the isolated filtrates and air dried for 10 minutes before collection of the grey solids and dark brown liquors. The solids were collected and dried in vacuo at 45° C. for ca. 4 hours to yield the title compound. 4.64 g of crystalline Compound [1] was successfully isolated in 77.9% yield. The maximum theoretical recovery based upon measured solubility pre-isolation at 0° C. was 91.7%.
# CDK = settings: statement in background section; cited from earlier work
# [2] = test system: range of different cell lines; settings: statement in background section; cited from earlier work
compound,measurement,setting,value
CC[C@H](Nc1nc(NCc2cnc(C)cc2C)c2ncn(C(C)C)c2n1)[C@@H](C)O [Compound [1]],T=0 solubility measurement,"[1]; ethyl acetate, after seeding at 59.8° C.",184.35 mg/mL
same,solubility,"[1]; ethyl acetate, held at 0° C. for ca. 5 hours (90.06% development)",18.84 mg/mL
same,T=0 solubility measurement,"[1]; isopropyl acetate, after seeding at 70.1° C.",189.83 mg/mL
same,T=0 solubility measurement,"[1]; n-butyl acetate, after seeding at 69.5° C.",175.84 mg/mL
same,solubility,"[1]; n-butyl acetate, held at 0° C. for ca. 3 hours (91.7% development)",16.61 mg/mL
same,CDK inhibitory activity,CDK,potent CDK inhibitory activity
same,potency in cellular toxicity studies,[2],surprisingly high potency
